In patent publication US11518763B2 (SCOHIA PHARMA, INC., priority 2018, dated 2022):

Each compound was assayed against T1, binding between NRF2 and KEAP1 (biotinylated human KEAP1 protein (Kelch domain), TAMRA-labeled NRF2 peptide) (Homo sapiens, UniProt Q14145) (assay: Measurement of activity of inhibiting NRF2 binding (NRF2-KEAP1 TR-FRET)). Conditions: inhibition rate relative to control at 100 nM test compound; TR-FRET; 60 min at room temperature.
T1 construct: biotinylated human KEAP1 protein (Kelch domain); biotin (biotinylated)
T1 sequence (Q14145 321-609 limits assumed): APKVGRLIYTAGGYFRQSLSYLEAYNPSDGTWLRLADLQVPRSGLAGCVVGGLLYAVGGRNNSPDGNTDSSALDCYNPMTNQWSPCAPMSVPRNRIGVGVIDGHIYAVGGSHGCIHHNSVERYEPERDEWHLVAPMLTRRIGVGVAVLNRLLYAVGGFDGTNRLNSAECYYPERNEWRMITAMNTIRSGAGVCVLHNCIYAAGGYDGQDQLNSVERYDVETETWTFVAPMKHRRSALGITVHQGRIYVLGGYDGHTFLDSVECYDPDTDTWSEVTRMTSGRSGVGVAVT
Description: Test Example 1: Measurement of Activity of Inhibiting NRF2 Binding
The inhibitory activity of test compounds against the binding between NRF2 and KEAP1 was measured by Time Resolved Fluorescence Resonance Energy Transfer (TR-FRET) method. Into a 384 well plate, 2 μL of a compound, 2 μL of 2 nM solution of biotinylated human KEAP1 protein (Kelch domain), 2 μL of 14 nM solution of TAMRA-labeled NRF2 peptide (TAMRA-Abu(4)-VWYTDIRMRDWM-OH), and 2 μL of 2 nM solution of Tb-labeled streptavidin, all solutions diluted with assay buffer (25 mM HEPES, pH7.5, 150 mM NaCl, 0.01% Tween-20), were added. For some wells, the KEAP1 protein was not added to define control wells. The plate was incubated at room temperature for 60 minutes, and time-resolved fluorescence was measured with a plate reader Envision (manufactured by PerkinElmer). The inhibitory activity for each compound at a compound concentration of 100 nM were calculated as a relative activity value by setting the fluorescence intensity of control wells to which the KEAP1 protein was not added as 100% inhibition, and the fluorescence intensity of wells to which no compound was added as 0%.
The measurement results according to the method described above (inhibition rate of signal value relative to control at 100 nM of test compound) are shown in Table 3.
`Cc1c2ccc3c1nnn3CCCCCc1ccc(cc1)C(=O)N1CCc3ccc(cc3C1)C2CC(=O)O` (stereo not shown) [Example 12, [32-Methyl-20-oxo-8,9,10,21-tetraazahexacyclo[19.5.3.2^16,19.0^3,7.0^6,10.0^24,28]dotriaconta-1(26),3(32),4,6,8,16,18,24,27,30-decaen-2-yl]acetic acid] was tested, and the “NRF2 binding inhibitory activity (at 100 nM)” value was 100%. In the case of `Cc1cc2cc(C)c1C(=O)N1CCc3ccc(cc3C1)C(C(C)(C)C(=O)O)c1ccc3c(nnn3CCCOC2)c1C` (stereo not shown) [Example 59, 2-methyl-2-[18,30,32-trimethyl-20-oxo-14-oxa-8,9,10,21-tetrazahexacyclo[19.5.3.2^16,19.1^3,7.0^6,10.0^24,28]dotriaconta-1(27),3(32),4,6,8,16(31),17,19(30),24(28),25-decaen-2-yl]propanoic acid], the “NRF2 binding inhibitory activity (at 100 nM)” value is reported as 100%.

Same assay, conditions: inhibition rate relative to control at 100 nM test compound; TR-FRET; 60 min at room temperature; 0.1 µM
In the case of `Cc1c2ccc3c1nnn3CCCOCc1ccc(cc1)C(=O)N1CCc3ccc(cc3C1)C2CC(=O)O` (stereo not shown) [Example 26, [32-Methyl-20-oxo-14-oxa-8,9,10,21-tetraazahexacyclo[19.5.3.2^16,19.1^3,7.0^6,10.0^24,28]dotriaconta-1(26),3(32),4,6,8,16,18,24,27,30-decaen-2-yl]acetic acid], the “NRF2 binding inhibitory activity (at 100 nM)” value is reported as 99%. In the case of `Cc1c2ccc3c1nnn3CCCOCc1ccc(cc1)C(=O)N1CCc3ccc(cc3C1)C2C(C)(C)C(=O)O` (stereo not shown) [Example 56, 2-methyl-2-[32-methyl-20-oxo-14-oxa-8,9,10,21-tetrazahexacyclo[19.5.3.2^16,19.1^3,7.0^6,10.0^24,28]dotriaconta-1(27),3(32),4,6,8,16,18,24(28),25,30-decaen-2-yl]propanoic acid], the “NRF2 binding inhibitory activity (at 100 nM)” value is reported as 99%. For `Cc1c2ccc3c1nnn3CCCOCc1cc(Cl)c(c(Cl)c1)C(=O)N1CCc3ccc(cc3C1)C2C(C)(C)C(=O)O` (stereo not shown) [Example 61, 2-[18,30-dichloro-32-methyl-20-oxo-14-oxa-8,9,10,21-tetrazahexacyclo[19.5.3.2^16,19.1^3,7.0^6,10.0^24,28]dotriaconta-1(27),3(32),4,6,8,16,18,24(28),25,30-decaen-2-yl]-2-methylpropanoic acid], the “NRF2 binding inhibitory activity (at 100 nM)” value was 99%. In the case of `Cc1c2ccc3c1nnn3CCCCCc1ccc(cc1)C(=O)N1CCc3ccc(cc3C1)C2C(C)(C)C(=O)O` (stereo not shown) [Example 63, 2-methyl-2-[32-methyl-20-oxo-8,9,10,21-tetrazahexacyclo [19.5.3.2^16,19.1^3,7.0^6,10.0^24,28]dotriaconta-1(27),3(32),4,6,8,16(31),17,19(30),24(28),25-decaen-2-yl]propanoic acid], the “NRF2 binding inhibitory activity (at 100 nM)” value is reported as 46%. For `Cc1c2ccc3c1nnn3CCCCOc1cc(Cl)c(c(Cl)c1)C(=O)N1CCc3ccc(cc3C1)C2C(C)(C)C(=O)O` (stereo not shown) [Example 66, 2-[18,30-dichloro-32-methyl-20-oxo-15-oxa-8,9,10,21-tetrazahexacyclo[19.5.3.2^16,19.1^3,7.0^6,10.0^24,28]dotriaconta-1(27),3(32),4,6,8,16(31),17,19(30),24(28),25-decaen-2-yl]-2-methylpropanoic acid], the “NRF2 binding inhibitory activity (at 100 nM)” value was 94%. With `Cc1cc2cc(C)c1C(=O)N1CCc3ccc(cc3C1)C(CC(=O)O)c1ccc3c(nnn3CCCOC2)c1C` (stereo not shown) [Example 68, [18,30,32-trimethyl-20-oxo-14-oxa-8,9,10,21-tetrazahexacyclo[19.5.3.2^16,19.1^3,7.0^6,10.0^24,28]dotriaconta-1(27),3(32),4,6,8,16,18,24(28),25,30-decaen-2-yl]acetic acid] the “NRF2 binding inhibitory activity (at 100 nM)” value was 93%.

Same assay, conditions: inhibition rate relative to control at 100 nM test compound; TR-FRET; 60 min at room temperature; read-out: NRF2 binding inhibitory activity (at 100 nM)
`Cc1c2ccc3c1nnn3CCCCOc1cc(F)c(c(F)c1)C(=O)N1CCc3ccc(cc3C1)C2CC(=O)O` (racemic) [Example 32, [18,30-Difluoro-32-methyl-20-oxo-15-oxa-8,9,10,21-tetraazahexacyclo[19.5.3.2^16,19.1^3,7.0^6,10.0^24,28]dotriaconta-1(26),3(32),4,6,8,16,18,24,27,30-decaen-2-yl]acetic acid] was tested, and the inhibition at 0.1 µM was 100%. `Cc1c2ccc3c1nnn3CCCCOc1ccc(c3c1OC(C)(C)C3)C(=O)N1CCc3ccc(cc3C1)C2CC(=O)O` (racemic) [Example 33, [6,6,33-Trimethyl-2-oxo-7,10-dioxa-1,15,16,17-tetraazaheptacyclo[22.5.3.2^3.9.1^18,22.0^4,8.0^15,19.0^27,31]pentatriaconta-3,8,16,18(33),19,21,24,26,31,34-decaen-23-yl]acetic acid] gave an inhibition at 0.1 µM of 100%. In the case of `Cc1c2ccc3c1nnn3CCCCCc1cc(Cl)c(c(Cl)c1)C(=O)N1CCc3ccc(cc3C1)C2C(C)(C)C(=O)O` (racemic) [Example 57, 2-[18,30-dichloro-32-methyl-20-oxo-8,9,10,21-tetrazahexacyclo[19.5.3.2^16,19.1^3,7.0^6,10.0^24,28]dotriaconta-1(26),3(32),4,6,8,16,18,24,27,30-decaen-2-yl]-2-methylpropanoic acid], the inhibition at 0.1 µM is reported as 100%. `Cc1c2ccc3c1nnn3CCCCCc1cc(Cl)c(c(Cl)c1)C(=O)N1CCc3ccc(cc3C1)C2CC(=O)O` (racemic) [Example 64, [2-[18,30-dichloro-32-methyl-20-oxo-8,9,10,21-tetrazahexacyclo[19.5.3.2^16,19.1^3,7.0^6,10.0^24,28]dotriaconta-1(27),3(32),4,6,8,16(31),17,19(30),24(28),25-decaen-2-yl]acetyl]oxysodium] showed an inhibition at 0.1 µM of 100%. Work on `Cc1c2ccc3c1nnn3CCCCCc1ccc(cc1)C(=O)N1CCc3ccc(cc3C1)C2C(C)C(=O)O` (stereo not shown) [Example 6, 2-[32-Methyl-20-oxo-8,9,10,21-tetraazahexacyclo[19.5.3.2^16,19.1^3,7.0^6,10.0^24,28]dotriaconta-1(26),3(32),4,6,8,16,18,24,27,30-decaen-2-yl]propanoic acid] yielded an inhibition at 0.1 µM of 100%. `Cc1oc(=O)oc1COC(=O)CC1c2ccc3c(c2)CN(CC3)C(=O)c2ccc(cc2)COCCCn2nnc3c(C)c1ccc32` (stereo not shown) [Example 34, (5-Methyl-2-oxo-2H-1,3-dioxol-4-yl)methyl [32-methyl-20-oxo-14-oxa-8,9,10,21-tetraazahexacyclo[19.5.3.2^16,19.1^3,7.0^6,10.0^24,28]dotriaconta-1(26),3(32),4,6,8,16,18,24,27,30-decaen-2-yl]acetate] was tested, and the inhibition at 0.1 µM was 99%. With `Cc1oc(=O)oc1COC(=O)CC1c2ccc3c(c2)CN(CC3)C(=O)c2ccc(cc2)CCCCCn2nnc3c(C)c1ccc32` (stereo not shown) [Example 35, (5-Methyl-2-oxo-2H-1,3-dioxol-4-yl)methyl [32-methyl-20-oxo-8,9,10,21-tetraazahexacyclo[19.5.3.2^16,19.1^3,7.0^6,10.0^24,28]dotriaconta-1(26),3(32),4,6,8,16,18,24,27,30-decaen-2-yl]acetate] the inhibition at 0.1 µM was 99%. `CCOC(=O)CC1c2ccc3c(c2)CN(CC3)C(=O)c2ccc(cc2)COCCCn2nnc3c(C)c1ccc32` (stereo not shown) [Example 36, Ethyl [32-methyl-20-oxo-14-oxa-8,9,10,21-tetraazahexacyclo[19.5.3.2^16,19.1^3,7.0^6,10.0^24,28]dotriaconta-1(26),3(32),4,6,8,16,18,24,27,30-decaen-2-yl]acetate] gave an inhibition at 0.1 µM of 15%. `Cc1ccc(NC(=O)CC2c3ccc4c(c3)CN(CC4)C(=O)c3ccc(cc3)CCCCCn3nnc4c(C)c2ccc43)cn1` (stereo not shown) [Example 38, 2-[32-Methyl-20-oxo-8,9,10,21-tetraazahexacyclo[19.5.3.2^16,19.1^3,7.0^6,10.0^24,28]dotriaconta-1(26),3(32),4,6,8,16,18,24,27,30-decaen-2-yl]-N-(6-methylpyridin-3-yl)acetamide] showed an inhibition at 0.1 µM of 79%. With `Cc1c2ccc3c1nnn3CCCCCc1ccc(cc1)C(=O)N1CCc3ccc(cc3C1)C2CC(=O)Nc1cccnc1` (stereo not shown) [Example 39] the inhibition at 0.1 µM was 97%. Compound `Cc1c2ccc3c1nnn3CCCOCc1ccc(cc1)C(=O)N1CCc3ccc(cc3C1)C2CC(=O)OC(C)OC(=O)OC1CCCCC1` (stereo not shown) [Example 40, 1-{[(Cyclohexyloxy)carbonyl]oxy}ethyl[32-methyl-20-oxo-14-oxa-8,9,10,21-tetraazahexacyclo[19.5.3.2^16,19.1^3,7.0^6,10.0^24,28]dotriaconta-1(26),3(32),4,6,8,16,18,24,27,30-decaen-2-yl]acetate] has an inhibition at 0.1 µM of 82%. `Cc1ccc(NC(=O)CC2c3ccc4c(c3)CN(CC4)C(=O)c3ccc(cc3)COCCCn3nnc4c(C)c2ccc43)cn1` (stereo not shown) [Example 42] was tested, and the inhibition at 0.1 µM was 60%. `Cc1cc2cc(C)c1C(=O)N1CCc3ccc(cc3C1)C(CC(=O)O)c1ccc3c(nnn3CCCOC2)c1C` (stereo not shown) [Example 67, [18,30,32-trimethyl-20-oxo-14-oxa-8,9,10,21-tetrazahexacyclo[19.5.3.2^16,19.1^3,7.0^6,10.0^24,28]dotriaconta-1(27),3(32),4,6,8,16,18,24(28),25,30-decaen-2-yl]acetic acid] showed an inhibition at 0.1 µM of 99%.

Same assay, conditions: read-out: NRF2 binding inhibitory activity (at 100 nM)
Compound `Cc1c2ccc3c1nnn3CCCOCc1ccc(cc1)C(=O)N1CCc3ccc(cc3C1)C2CC(=O)O` (stereo not shown) [Example 41, Sodium [32-methyl-20-oxo-14-oxa-8,9,10,21-tetraazahexacyclo[19.5.3.2^16,19.1^3.7.0^6,10.0^24,28]dotriaconta-1(26),3(32),4,6,8,16,18,24,27,30-decaen-2-yl]acetate] has an inhibition at 0.1 µM of 100%.
